Source: patent US20170137387A1, “PHARMACOLOGICALLY ACTIVE QUINAZOLINEDIONE DERIVATIVES” (ORION CORPORATION, priority 2014, published 2017)

Key:
[1] = biological target: T1, human GABAB1 and GABAB2 receptor subunits (Homo sapiens, UniProt O75899+Q9UBS5); experiment: Agonism and positive allosteric modulator pharmacology in vitro, two-addition FLIPR calcium assay; format: cell-based; settings: CHO cells co-expressing Galpha16; for IA (GABAB agonism): agonism efficacy at 30 μM / GABA efficacy at 30 μM; for IA (GABAB positive allosteric modulation): positive allosteric modulator efficacy at 10 μM (with EC10.5 GABA) / GABA efficacy at 30 μM
T1 construct: expressed in transfected cells; host or cells: CHO cells
Method: (§1) CHO cells expressing the human GABAB1 and GABAB2 receptor subunits co-expressing promiscuous Galpha16 proteins to force couple the receptor to the intracellular calcium signalling pathway were used to study GABAB pharmacology in vitro. The cells were maintained at 37° C. in a 5% CO2 95% air atmosphere in HAM F-12 medium supplemented with 10% foetal bovine serum and selection antibiotics.
(§2) The day before the experiment the cells were detached and plated into black-walled clear bottom 384-well plates at a cell density of 20 000 cells per well. The growth medium was removed and the cells were incubated with FLIPR Calcium 5 Assay reagent (Molecular Devices, CA, USA) diluted 1:1 in Probenecid-Ringer for 1 h at 37° C. in dark. Probenecid-Ringer buffer consisted of 150 mM NaCl, 3 mM KCl, 1.2 mM MgCl2, 1 mM CaCl2, 5 mM glucose, 20 mM 2-(4-(2-hydroxyethyl)piperazin-1-yl)ethanesulfonic acid (HEPES), and 2.5 mM Probenecid (pH 7.4 adjusted with 1.0 M NaOH and osmolarity adjusted to […]). Compounds were dissolved in Probenecid-Ringer. […] The samples were excited at 470-495 nm and emission was detected at 515-575 nm. All experiments were performed at 37° C.
A two-addition protocol was used to determine agonism and positive allosteric modulator pharmacology in the same assay using a kinetic read out. Agonism pharmacology of compounds was studied in the first addition in the concentration range 0.123-30 μM in quadruplicate at each concentration. In the second addition, a low (EC10.5) concentration of GABA was applied to detect the positive allosteric modulator pharmacology of the compounds to be studied. The EC10.5 concentration was determined from the GABA EC50 value using the formula ECF≈(F/(100-F))^1/H·EC50, wherein F is the fraction of full response and H is Hill slope.
(§3) Baseline fluorescence minimum was subtracted from maximum for the calculation of agonism and positive allosteric modulator pharmacology. Both in the agonism mode and in the allosteric mode, the efficacy was related to the intrinsic activity (IA) of the endogenous agonist GABA at 30 μM (positive allosteric modulator efficacy at 10 μM/GABA efficacy or agonism efficacy at 30 μM/GABA efficacy). To determine potentiation of GABA dose-response, the compounds, at a concentration of 10 μM diluted in Probenecid-Ringer, were added by FLIPR tetra followed by addition of GABA (diluted in water in the concentration range 0.123-10 μM). The EC50 values were determined using a four-parameter logistic fit (model 205 in ActivityBase XE). The EC50 value of GABA was divided with the EC50 value of GABA in the presence of positive allosteric modulator to determine potentiation of GABA dose-response EC50 value.

[2] = biological target: T1, human GABAB1 and GABAB2 receptor subunits; experiment: Potentiation of GABA dose-response, FLIPR calcium assay; format: cell-based; settings: compound at 10 μM; EC50 of GABA divided by EC50 of GABA in the presence of positive allosteric modulator
Method: as §1, §2, §3

T1 sequence (Q9UBS5 15-961 limits assumed): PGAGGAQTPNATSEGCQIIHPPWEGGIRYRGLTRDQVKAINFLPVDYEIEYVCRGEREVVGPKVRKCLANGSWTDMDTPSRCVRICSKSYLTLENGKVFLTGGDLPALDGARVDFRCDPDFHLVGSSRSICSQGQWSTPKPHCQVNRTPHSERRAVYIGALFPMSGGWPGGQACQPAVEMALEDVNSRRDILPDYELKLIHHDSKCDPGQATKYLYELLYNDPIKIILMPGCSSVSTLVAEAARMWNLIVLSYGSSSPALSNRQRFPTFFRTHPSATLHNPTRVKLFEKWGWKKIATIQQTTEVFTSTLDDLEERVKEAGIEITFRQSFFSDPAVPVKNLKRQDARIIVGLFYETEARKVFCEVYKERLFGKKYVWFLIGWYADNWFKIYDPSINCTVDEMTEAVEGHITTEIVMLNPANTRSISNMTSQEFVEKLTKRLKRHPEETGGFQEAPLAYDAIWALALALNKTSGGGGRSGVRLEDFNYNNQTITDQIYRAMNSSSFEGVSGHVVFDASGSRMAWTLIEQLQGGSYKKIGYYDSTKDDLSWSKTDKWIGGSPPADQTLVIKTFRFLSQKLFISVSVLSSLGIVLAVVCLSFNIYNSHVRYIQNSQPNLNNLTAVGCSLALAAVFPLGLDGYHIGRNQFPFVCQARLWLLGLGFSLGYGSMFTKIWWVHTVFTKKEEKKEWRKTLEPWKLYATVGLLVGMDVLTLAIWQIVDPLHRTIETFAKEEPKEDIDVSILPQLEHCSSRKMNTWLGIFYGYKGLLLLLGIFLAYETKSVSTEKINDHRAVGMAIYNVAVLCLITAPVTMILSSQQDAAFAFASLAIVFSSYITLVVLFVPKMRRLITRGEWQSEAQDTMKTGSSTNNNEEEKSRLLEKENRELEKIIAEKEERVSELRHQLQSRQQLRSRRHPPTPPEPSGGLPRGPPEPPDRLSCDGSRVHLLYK
T1 sequence (O75899 42-941): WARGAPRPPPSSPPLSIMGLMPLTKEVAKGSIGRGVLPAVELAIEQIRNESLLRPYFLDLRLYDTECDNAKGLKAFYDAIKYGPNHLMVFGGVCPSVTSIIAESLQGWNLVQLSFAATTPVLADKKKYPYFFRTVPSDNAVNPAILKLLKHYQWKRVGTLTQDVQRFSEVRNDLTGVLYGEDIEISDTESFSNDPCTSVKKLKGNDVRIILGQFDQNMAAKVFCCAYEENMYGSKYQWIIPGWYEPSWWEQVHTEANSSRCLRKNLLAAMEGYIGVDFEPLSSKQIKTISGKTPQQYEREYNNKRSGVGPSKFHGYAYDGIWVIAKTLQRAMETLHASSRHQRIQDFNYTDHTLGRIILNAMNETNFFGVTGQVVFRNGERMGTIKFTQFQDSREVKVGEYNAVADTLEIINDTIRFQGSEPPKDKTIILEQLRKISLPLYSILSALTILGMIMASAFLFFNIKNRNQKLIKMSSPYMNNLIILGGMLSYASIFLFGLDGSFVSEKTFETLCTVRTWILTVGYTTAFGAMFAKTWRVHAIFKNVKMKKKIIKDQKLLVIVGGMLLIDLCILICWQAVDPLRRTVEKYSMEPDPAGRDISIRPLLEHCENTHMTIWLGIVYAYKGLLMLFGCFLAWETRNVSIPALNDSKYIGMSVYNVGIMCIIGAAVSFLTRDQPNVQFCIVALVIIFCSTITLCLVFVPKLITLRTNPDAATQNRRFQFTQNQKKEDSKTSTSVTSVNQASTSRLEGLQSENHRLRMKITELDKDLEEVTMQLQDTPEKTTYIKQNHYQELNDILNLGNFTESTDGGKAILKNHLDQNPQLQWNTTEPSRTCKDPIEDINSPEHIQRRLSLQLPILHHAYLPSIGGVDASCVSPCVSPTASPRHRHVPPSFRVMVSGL

| Structure (SMILES) | IA (GABAB agonism) [1] | IA (GABAB positive allosteric modulation) [1] | Potentiation of GABA (fold) [2] [fold] |
| --- | --- | --- | --- |
| CC(C)(O)Cn1c(=O)n(Cc2ccc(Br)cc2)c(=O)c2ccc(F)cc21 [Example 39, 3-(4-Bromobenzyl)-7-fluoro-1-(2-hydroxy-2-methylpropyl)quinazoline-2,4(1H,3H)-dione] | 0.30 | 0.85 | 23.1 |
| CC(C)(O)Cn1c(=O)n(Cc2ccc(Br)cc2)c(=O)c2cc(F)c(Cl)cc21 [Example 49, 3-(4-Bromobenzyl)-7-chloro-6-fluoro-1-(2-hydroxy-2-methylpropyl)quinazoline-2,4(1H,3H)-dione] | 0.28 | 0.61 | 31 |
| CC1(C)Cn2c(=O)n(Cc3ccc(Br)cc3)c(=O)c3ccc(Cl)c(c32)O1 [Example 127, 6-(4-Bromobenzyl)-10-chloro-2,2-dimethyl-2H-[1,4]oxazino[2,3,4-ij]quinazoline-5,7(3H,6H)-dione] | 0.02 | 0.53 | 6.7 |
| Cn1c(=O)n(C2(c3ccc(Cl)cc3)CC2)c(=O)c2ccc(F)cc21 [Example 43, 3-(1-(4-Chlorophenyl)cyclopropyl)-7-fluoro-1-methylquinazoline-2,4(1H,3H)-dione] | 0.17 | 0.51 | 3.8 |
| C[C@@H](O)Cn1c(=O)n(Cc2ccc(Cl)cc2)c(=O)c2ccc(Cl)c(F)c21 [Example 82, (R)-7-Chloro-3-(4-chlorobenzyl)-8-fluoro-1-(2-hydroxypropyl)quinazoline-2,4(1H,3H)-dione] | 0.18 | 0.71 | 24.5 |
| CC1(Cn2c(=O)n(Cc3ccc(Br)cc3)c(=O)c3cc(F)c(Cl)cc32)COC1 [Example 50, 3-(4-Bromobenzyl)-7-chloro-6-fluoro-1-((3-methyloxetan-3-yl)methyl)quinazoline-2,4(1H,3H)-dione] | 0.04 | 0.73 | 22 |
| C[C@H](c1ccc(Cl)cc1)n1c(=O)c2ccc(Cl)cc2n(CC2(C)COC2)c1=O [Example 137, (R)-7-Chloro-3-(1-(4-chlorophenyl)ethyl)-1-((3-methyloxetan-3-yl)methyl)quinazoline-2,4(1H,3H)-dione] | 0.05 | 0.64 | 19.7 |
| C[C@H](c1ccc(Cl)cc1)n1c(=O)c2ccc(F)cc2n(C)c1=O [Example 42, (R)-3-(1-(4-Chlorophenyl)ethyl)-7-fluoro-1-methylquinazoline-2,4(1H,3H)-dione] | 0.18 | 0.37 | 7.3 |
| CC(C)(O)Cn1c(=O)n(Cc2ccc(Br)cc2)c(=O)c2cc(F)c(F)c(F)c21 [Example 60, 3-(4-Bromobenzyl)-6,7,8-trifluoro-1-(2-hydroxy-2-methylpropyl)quinazoline-2,4(1H,3H)-dione] | 0.20 | 0.85 | 89 |
| CC(C)(O)Cn1c(=O)n(Cc2ccc(Cl)cc2)c(=O)c2cc(Cl)cc(F)c21 [Example 131, 6-Chloro-3-(4-chlorobenzyl)-8-fluoro-1-(2-hydroxy-2-methylpropyl)quinazoline-2,4(1H,3H)-dione] | 0.19 | 0.89 | 42.6 |
| Cn1c(=O)n(Cc2ccc(Br)cc2)c(=O)c2ccc(F)cc21 [Example 33, 3-(4-Bromobenzyl)-7-fluoro-1-methylquinazoline-2,4(1H,3H)-dione] | 0.23 | 0.45 | 4.8 |
| C[C@H](c1ccc(Cl)cc1)n1c(=O)c2ccc(Cl)cc2n(CC(C)(C)O)c1=O [Example 117, (R)-7-Chloro-3-(1-(4-chlorophenyl)ethyl)-1-(2-hydroxy-2-methylpropyl)quinazoline-2,4(1H,3H)-dione] | 0.09 | 0.51 | 19.8 |
| Cn1c(=O)n(Cc2ccc([N+](=O)[O-])cc2)c(=O)c2ccc(F)cc21 [Example 40, 7-Fluoro-1-methyl-3-(4-nitrobenzyl)quinazoline-2,4(1H,3H)-dione] | 0.04 | 0.26 | 1.5 |
| Cn1c(=O)n(C2CCCc3ccccc32)c(=O)c2ccc(C(F)(F)F)cc21 (stereo not drawn) [Example 12, 1-Methyl-3-(1,2,3,4-tetrahydronaphthalen-1-yl)-7-(trifluoromethyl)quinazoline-2,4(1H,3H)-dione] | 0.20 | 0.67 | 25.8 |
| CC(C)(C)C(=O)Cn1c(=O)n(Cc2ccc(Br)cc2)c(=O)c2ccc(F)cc21 [Example 26, 3-(4-Bromobenzyl)-1-(3,3-dimethyl-2-oxobutyl)-7-fluoroquinazoline-2,4(1H,3H)-dione] | 0.08 | 0.48 | 1.7 |
| CC(C)(O)Cn1c(=O)n(Cc2ccc(Br)cc2)c(=O)c2ccc(Cl)c(F)c21 [Example 123, 3-(4-Bromobenzyl)-7-chloro-8-fluoro-1-(2-hydroxy-2-methylpropyl)quinazoline-2,4(1H,3H)-dione] | 0.13 | 0.71 | 60.4 |
| CC(C)(O)Cn1c(=O)n(Cc2ccc(Cl)c(Cl)c2)c(=O)c2ccc(C(F)(F)F)cc21 [Example 2, 3-(3,4-Dichlorobenzyl)-1-(2-hydroxy-2-methylpropyl)-7-(trifluoromethyl)quinazoline-2,4(1H,3H)-dione] | 0.14 | 0.65 | 11 |
| CC(C(N)=O)n1c(=O)n(Cc2ccc(Br)cc2)c(=O)c2ccc(F)cc21 (stereo not drawn) [Example 37, 2-(3-(4-Bromobenzyl)-7-fluoro-2,4-dioxo-3,4-dihydroquinazolin-1(2H)-yl)propanamide] | 0.21 | 0.39 | 1.9 |
| CCn1c(=O)n(Cc2ccc(Br)cc2)c(=O)c2ccc(F)cc21 [Example 87, 3-(4-Bromobenzyl)-1-ethyl-7-fluoroquinazoline-2,4(1H,3H)-dione] | 0.11 | 0.44 | 3.3 |
| CC(C)n1c(=O)n(Cc2ccc(Br)cc2)c(=O)c2ccc(F)cc21 [Example 38, 3-(4-Bromobenzyl)-7-fluoro-1-isopropylquinazoline-2,4(1H,3H)-dione] | 0.13 | 0.21 | 3.5 |
